Series [1] concerns the target T1, rA2a adenosine receptor (Rattus norvegicus, UniProt P30543).
T1 construct: Striatal and forebrain tissues from Wistar rats were homogenized in ice-cold 50 mM Tris.HCl buffer; from tissue; host or cells: Wistar rat brain membranes (striatum for A2a is my own knowledge)
Description: Binding of [3H]CGS21680 to A2a (rat). The note with it: for % Displacement rA2a: 10 μM, [3H]CGS21680.
Description: (§3) The binding of [^3H]PIA ((R)-N^6-(phenylisopropyl)adenosine) to A1 and the binding of [^3H]CGS21680(2-[[[4-(2–Carboxyethyl-phenyl)ethylamino]-5′-N-thylcarbamoyl)adenosine) to A2a were measured as described below. Adenosine deaminase was added while the membrane was cultured at 30° C. for 30 min with the radioactive ligand. The IC50 values of each compound were determined for at least 6 different concentrations.
(§4) Striatal and forebrain tissues from Wistar rats were homogenized in ice-cold 50 mM Tris.HCl buffer, pH 7.4, using an electric homogenizer. The homogenate was centrifuged at 20,000 g for 10 min at 4° C., and the pellet was washed in fresh buffer. The final pellet was stored at −80° C. until the binding experiments.

The target of series [2] is T2, rA1 adenosine receptor (Rattus norvegicus, UniProt P25099).
T2 construct: Striatal and forebrain tissues from Wistar rats were homogenized in ice-cold 50 mM Tris.HCl buffer; from tissue; host or cells: Wistar rat brain membranes (forebrain for A1 is my own knowledge)
T2 sequence (P25099 1-326): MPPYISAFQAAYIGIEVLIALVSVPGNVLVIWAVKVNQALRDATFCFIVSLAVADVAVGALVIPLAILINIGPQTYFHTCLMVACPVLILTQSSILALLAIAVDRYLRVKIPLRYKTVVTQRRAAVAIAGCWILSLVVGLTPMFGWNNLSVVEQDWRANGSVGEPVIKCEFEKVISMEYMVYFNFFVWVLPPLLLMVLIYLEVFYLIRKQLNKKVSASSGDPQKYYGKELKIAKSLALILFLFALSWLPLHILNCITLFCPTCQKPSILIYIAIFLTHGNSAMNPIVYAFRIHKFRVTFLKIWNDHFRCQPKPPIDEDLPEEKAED
Description: Binding of [3H]PIA to A1 (rat). The note with it: Cheng-Prusoff.
Description: as §3, §4

Series [3] addresses T3, hA3 adenosine receptor (Homo sapiens, UniProt P0DMS8).
T3 construct: expressed in transfected cells; host or cells: CHO cells (ATCC CCL-61)
T3 sequence (P0DMS8 1-318): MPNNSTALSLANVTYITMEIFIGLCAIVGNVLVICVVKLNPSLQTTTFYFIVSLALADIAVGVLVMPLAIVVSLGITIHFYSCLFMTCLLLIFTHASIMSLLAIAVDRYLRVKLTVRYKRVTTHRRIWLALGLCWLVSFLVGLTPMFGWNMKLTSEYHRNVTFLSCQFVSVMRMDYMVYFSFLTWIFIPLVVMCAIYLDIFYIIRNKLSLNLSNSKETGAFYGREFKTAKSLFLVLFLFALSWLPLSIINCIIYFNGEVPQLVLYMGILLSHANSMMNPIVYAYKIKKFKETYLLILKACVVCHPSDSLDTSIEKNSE
Description: [125I]AB-MECA binding to membranes of CHO cells that express the A3 receptor. Particulars: for Ki: [125I]AB-MECA, CHO cell membrane, Cheng-Prusoff.
Description: Chinese hamster ovary (CHO, ATCC; US Cell Strain Bank No. CCL-61) cells that express the A3 receptor were cultured at 37° C. in the presence of 5% carbon dioxide in F-12 culture medium (Gibco Company, USA) containing 10% fetal bovine serum (FBS) and penicillin/streptomycin (100 U/mL and 100 μg/mL), and used.
The inhibitor is first dissolved in dimethyl sulfoxide and diluted with buffer solution. The final concentration of DMSO should not exceed 1%. After culturing at 37° C. for 1 h, it was quickly filtered using a cell collector (TOMTEC Company, USA) and a GF/B filter (Whatman Company, USA). The test tube was rinsed three times with 3 mL of buffer solution, and the radioactivity was measured using a γ-counter.
CHO (Chinese hamster ovary) cells expressing recombinant the human A3AR were cultured in DMEM supplemented with 10% fetal bovine serum, 100 units/mL penicillin, 100 μg/mL streptomycin, 2 μmol/mL glutamine and 800 μg/mL geneticin. The CHO cells expressing rat A3ARs were cultured in DMEM and F 12 (1:1). Cells were harvested by trypsinization. After homogenization and suspension, cells were centrifuged at 500 g for 10 min, and the pellet was re-suspended in 50 mM Tris HCl buffer (pH 8.0) containing 10 mM MgCl2, 1 mM EDTA and 0.1 mg/mL CHAPS. The suspension was homogenized with an electric homogenizer for 10 sec, and was then re-centrifuged at 20,000 g for 20 min at 4° C. The resultant pellets were resuspended in buffer in the presence of 3 Units/mL adenosine deaminase, and the suspension was stored at −80° C. until the binding experiments. Striatal and forebrain tissues from Wistar rats were homogenized in ice-cold 50 mM Tris.HCl buffer, pH 7.4, using an electric homogenizer. The homogenate was centrifuged at 20,000 g for 10 min at 4° C., and the pellet was washed in fresh buffer. The final pellet was stored at −80° C. until the binding experiments.
The mixtures were incubated at 37° C. for 60 min. Binding reactions were terminated by filtration through Whatman GF/B filters under reduced pressure using a MT-24 cell harvester (Brandell, Gaithersburgh, Md., USA). Filters were washed three times with 9 mL ice-cold buffer. Radioactivity was determined in a Beckman 5500γ-counter.

Series [4] concerns the target hA2a adenosine receptor (Homo sapiens, UniProt P29274). Description: Binding of [3H]CGS21680 to A2a (human). The note with it: for Ki: [3H]CGS21680, Cheng-Prusoff.
Description: as §3
The target in series [5] is T4, hA1 adenosine receptor (Homo sapiens, UniProt P30542).
T4 sequence (P30542 1-326): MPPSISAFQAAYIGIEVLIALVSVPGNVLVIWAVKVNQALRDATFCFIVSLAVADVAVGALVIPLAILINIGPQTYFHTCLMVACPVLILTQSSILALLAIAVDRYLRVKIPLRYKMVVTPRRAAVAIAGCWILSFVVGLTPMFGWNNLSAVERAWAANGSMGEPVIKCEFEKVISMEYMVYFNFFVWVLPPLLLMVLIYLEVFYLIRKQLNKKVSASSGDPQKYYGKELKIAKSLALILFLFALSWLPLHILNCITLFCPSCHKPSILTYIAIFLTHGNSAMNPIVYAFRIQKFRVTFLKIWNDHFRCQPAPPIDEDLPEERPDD
Description: Binding of [3H]PIA to A1 (human). Particulars: Cheng-Prusoff.
Description: as §3

The test system of series [6] is Sprague Dawley rats. Description: Toxicity test in rats. Type of series: in vivo. Particulars: rats, 20, 10 and 1 mg/kg peritoneally, observed for 24 h. On the procedure:
(§1) Animal studies were carried out to test the toxicity of the compounds pared in the present invention.
(§2) 25±5 g ICR family mice (Joongang Study Animal) and 235±10 g specific pathogen free (SPF) Sprague Dawley rats (Joongang Study Animal) were divided into 3 groups.

In series [7] the test system is ICR family mice. Description: Toxicity test in mice. The note with it: mice, 20, 10 and 1 mg/kg peritoneally, observed for 24 h. In kind it is in vivo. The procedure:
as §1, §2

The mark [8] stands for this setting: [3H]CGS21680, Cheng-Prusoff, read-out: Ki rA2a.

SMILES strings stand for the structures. Read-outs that look alike come from different tables or passages of the source.

Chain of hA2a adenosine receptor (P29274 whole entry): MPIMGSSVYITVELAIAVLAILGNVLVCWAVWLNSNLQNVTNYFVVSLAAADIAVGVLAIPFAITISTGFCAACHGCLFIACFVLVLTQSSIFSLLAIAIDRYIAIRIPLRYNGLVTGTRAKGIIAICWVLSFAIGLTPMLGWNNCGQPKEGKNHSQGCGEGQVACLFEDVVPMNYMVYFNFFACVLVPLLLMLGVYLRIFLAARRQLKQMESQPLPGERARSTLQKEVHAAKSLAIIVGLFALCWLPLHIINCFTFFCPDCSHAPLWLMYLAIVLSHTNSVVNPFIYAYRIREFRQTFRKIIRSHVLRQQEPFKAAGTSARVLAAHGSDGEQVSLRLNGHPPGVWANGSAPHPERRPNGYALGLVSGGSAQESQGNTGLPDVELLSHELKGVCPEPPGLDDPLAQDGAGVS
T1 sequence (P30543 whole entry): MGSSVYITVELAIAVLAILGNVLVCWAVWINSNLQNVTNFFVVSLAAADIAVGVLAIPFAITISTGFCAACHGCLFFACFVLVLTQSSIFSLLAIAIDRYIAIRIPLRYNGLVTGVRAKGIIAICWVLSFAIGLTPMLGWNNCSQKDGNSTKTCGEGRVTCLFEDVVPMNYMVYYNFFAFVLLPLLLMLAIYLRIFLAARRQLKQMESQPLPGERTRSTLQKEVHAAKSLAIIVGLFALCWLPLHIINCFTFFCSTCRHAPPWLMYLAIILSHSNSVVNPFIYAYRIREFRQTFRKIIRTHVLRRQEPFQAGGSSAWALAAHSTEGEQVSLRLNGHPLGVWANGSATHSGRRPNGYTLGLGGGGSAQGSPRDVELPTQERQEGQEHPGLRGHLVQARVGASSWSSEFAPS

The term melting point denotes the temperature of the solid-liquid transition. Broadly, the Ki is the equilibrium dissociation constant of an inhibitor or competing ligand from its target. Molecule `CNC(=O)[C@]1(n2cnc3c(NCc4cccc(I)c4)nc(Cl)nc32)SC[C@H](O)[C@@H]1O` [Compound 12, (2R,3S,4R)-2-[2-chloro-6-(3-iodobenzylamino)purin-9-yl)-3,4-dihydroxytetrahydrothiophene-2-carboxylic acid methyl amide] came in with a melting point of 205 to 207 °C. Besides, the “% Displacement rA2a” value in series [1] is reported as less than 10%. This molecule also yielded a Ki in series [2] of 188 nM.
Consider `OC[C@H]1S[C@@H](n2cnc3c(NCc4cccc(I)c4)nc(Cl)nc32)[C@H](O)[C@@H]1O` [Compound 20, (2R,3R, 4S,5R)-2-[2-chloro-6-(3-iodobenzylamino)purin-9-yl]-5-hydroxymethyltetrahydrothiophene-3,4-diol], for which the melting point was 112 to 114 °C. Also, in series [1] (setting [8]), the Ki came out at 285 nM. The same molecule yielded a Ki in series [3] of 3.2 nM. The molecule further displayed a Ki in series [2] of 127 nM.
In the case of `CNc1nc(Cl)nc2c1ncn2[C@@H]1S[C@H](CO)[C@@H](O)[C@H]1O` [Compound 23, (2R,3R,4S,5R)-2-(2-chloro-6-methylaminopurin-9-yl)-5-hydroxymethyltetrahydrothiophene-3,4-diol], in series [1], the “% Displacement rA2a” value is less than 10%. Also, the Ki in series [3] was found to be 0.8 nM; in series [2] it was 780 nM.
As for `Nc1nc(Cl)nc2c1ncn2[C@@H]1S[C@H](CO)[C@@H](O)[C@H]1O` [Compound 25, (2R,3R,4S,5R)-2-(2-chloro-6-aminopurin-9-yl)-5-hydroxymethyltetrahygrothiophene-3,4-diol], the Ki in series [1] stood at 705 nM; in series [3], 4.9 nM; in series [2], 238 nM.
With `CNC(=O)[C@H]1S[C@@H](n2cnc3c(N)nc(Cl)nc32)[C@H](O)[C@@H]1O` [Compound 29], the Ki stood at 158 nM in series [4], 0.4 nM in series [3], 294 nM in series [2] and 89.2 nM in series [5]. Further, in series [1], the “% Displacement rA2a” value is listed as less than 10%.
In the case of `CNC(=O)[C@H]1S[C@@H](n2cnc3c(NC)nc(Cl)nc32)[C@H](O)[C@@H]1O` [Compound 33, (2S,3S,4R,5R)-5-(2-chloro-6-methylaminopurin-9-yl)-3,4-dihydroxytetrahydrothiophene-2-carboxylic acid methyl amide], in series [4] (10 μM, [3H]CGS21680), the “% Displacement hA2a” value is 20%. Also, the deaths entry in series [6] and in series [7] was “no deaths were observed” in each case. Also, the “symptoms (weight increase, feed intake) versus control group” value in series [6] and in series [7] was “no other observable symptoms” each time. Besides, the inhibitory constant (Ki) is 6340 nM in series [1] (setting [8]), 198 nM in series [2] and 1330 nM in series [5]. Also, the A3 agonist activity result in series [3] (in words, compared with known compounds) is “most strong and selective A3 agonist activity among the known compounds”.
Take `CNC(=O)[C@H]1S[C@@H](n2cnc3c(NCc4cccc(I)c4)nc(Cl)nc32)[C@H](O)[C@@H]1O` [Compound 36]: the results for the Ki in series [4], in series [1] (setting [8]) and in series [2] were 223 nM, 348 nM and 140 nM, respectively.

Source of the values: patent US7199127B2, “Purine nucleosides” (United States of America, Represented by the Secretary, …, priority 2002, dated 2007).
